This note sets out measurements from ChEMBL document CHEMBL1697781, “Assessment of the health effects of chemicals in humans: II. Construction of an adverse effects database for QSAR modeling” (Curr Drug Discov Technol, 2004).

Conditions in all cases: human; call rule not given here
Data set [1] deals with Hepatotoxicity. Kind of data set: FDA HLAED, serum glutamic pyruvic transaminase (SGPT) increase.
Data set [2] concerns Hepatotoxicity. The data set can be described thus: FDA HLAED, lactate dehydrogenase (LDH) increase.
For data set [3], the system named is Hepatotoxicity. The data set can be described thus: FDA HLAED, gamma-glutamyl transferase (GGT) increase.
Data set [4] deals with Hepatotoxicity. Kind of data set: FDA HLAED, alkaline phosphatase increase.
The subject of data set [5] is Hepatotoxicity. Kind of data set: FDA HLAED, serum glutamic oxaloacetic transaminase (SGOT) increase.
Data set [6] relates to Hepatotoxicity. Kind of data set: FDA HLAED, liver enzyme composite activity.

Structures are written as SMILES.
For GGT Increase - Index Value in this document: reference of the scale not given here.
For LDH Increase - Index Value in this document: reference of the scale not given here.

Turning to `CCN[C@@H](C)Cc1cccc(C(F)(F)F)c1` [DEXFENFLURAMINE], in the data set with Hepatotoxicity [1], the “SGPT Increase - Activity Score” value is “Inactive”, the “SGPT Increase - Index Value” amounted to 0.6 and the “SGPT Increase - Number of Reports” value is on record as < 4. Further, in the data set with Hepatotoxicity [2], the “LDH Increase - Activity Score” value is reported as “Inactive”, the “LDH Increase - Index Value” was 0.4 and the “LDH Increase - Number of Reports” value is given as < 4. Further, in the data set on Hepatotoxicity [3], the “GGT Increase - Activity Score” value is “Inactive”, the “GGT Increase - Index Value” is 0.6 and the “GGT Increase - Number of Reports” value was < 4. In the data set with Hepatotoxicity [4], the “Alkaline Phosphatase Increase - Activity Score” value is given as “Inactive”, the “Alkaline Phosphatase Increase - Index Value” is 0.2 and the “Alkaline Phosphatase Increase - Number of Reports” value is < 4. Also, in the data set with Hepatotoxicity [5], the “SGOT Increase - Activity Score” value was “Inactive”, the “SGOT Increase - Index Value” worked out at 1 and the “SGOT Increase - Number of Reports” value is given as “>= 4”. In the data set with Hepatotoxicity [6], the “Composite Activity - Active” value is 0, the “Composite Activity - Marginal” value was 0 and the “Composite Activity - Score” value is recorded as “Inactive”.
For the compound `C[C@@H](CN1CC(=O)NC(=O)C1)N1CC(=O)NC(=O)C1` [DEXRAZOXANE], in the data set with Hepatotoxicity [1], the “SGPT Increase - Activity Score” value is “Inactive”, the “SGPT Increase - Index Value” is given as 0 and the “SGPT Increase - Number of Reports” value is on record as < 4. Besides, in the data set with Hepatotoxicity [2], the “LDH Increase - Activity Score” value was “Inactive”, the “LDH Increase - Index Value” turned out to be 0 and the “LDH Increase - Number of Reports” value is < 4. Further, in the data set on Hepatotoxicity [3], the “GGT Increase - Activity Score” value is “Inactive”, the “GGT Increase - Index Value” came to 0 and the “GGT Increase - Number of Reports” value is < 4. In addition, in the data set on Hepatotoxicity [4], the “Alkaline Phosphatase Increase - Activity Score” value is listed as “Inactive”, the “Alkaline Phosphatase Increase - Index Value” amounted to 0 and the “Alkaline Phosphatase Increase - Number of Reports” value is on record as < 4. In addition, in the data set on Hepatotoxicity [5], the “SGOT Increase - Activity Score” value is “Inactive”, the “SGOT Increase - Index Value” is given as 0 and the “SGOT Increase - Number of Reports” value is < 4. In the data set on Hepatotoxicity [6], the “Composite Activity - Active” value is listed as 0, the “Composite Activity - Marginal” value is 0 and the “Composite Activity - Score” value is given as “Inactive”.
For the compound `C[C@@]12CCCCC[C@@H](Cc3ccc(O)cc31)[C@@H]2N` [DEZOCINE], in the data set on Hepatotoxicity [1], the “SGPT Increase - Activity Score” value is “Inactive”, the “SGPT Increase - Index Value” is 0 and the “SGPT Increase - Number of Reports” value is reported as < 4. Further, in the data set on Hepatotoxicity [2], the “LDH Increase - Activity Score” value is reported as “Inactive”, the “LDH Increase - Index Value” came out at 0 and the “LDH Increase - Number of Reports” value is < 4. In the data set with Hepatotoxicity [3], the “GGT Increase - Activity Score” value is recorded as “Inactive”, the “GGT Increase - Index Value” is on record as 0 and the “GGT Increase - Number of Reports” value is reported as < 4. In the data set on Hepatotoxicity [4], the “Alkaline Phosphatase Increase - Activity Score” value was “Inactive”, the “Alkaline Phosphatase Increase - Index Value” amounted to 0 and the “Alkaline Phosphatase Increase - Number of Reports” value is reported as < 4. Moreover, in the data set on Hepatotoxicity [5], the “SGOT Increase - Activity Score” value is on record as “Inactive”, the “SGOT Increase - Index Value” came to 0 and the “SGOT Increase - Number of Reports” value was < 4. Also, in the data set on Hepatotoxicity [6], the “Composite Activity - Active” value came out at 0, the “Composite Activity - Marginal” value stood at 0 and the “Composite Activity - Score” value is on record as “Inactive”.
Turning to `O=C(O)Cc1ccccc1Nc1c(Cl)cccc1Cl` [DICLOFENAC], in the data set with Hepatotoxicity [1], the “SGPT Increase - Activity Score” value is “Active”, the “SGPT Increase - Index Value” stood at 11.1 and the “SGPT Increase - Number of Reports” value was “>= 4”. Further, in the data set on Hepatotoxicity [2], the “LDH Increase - Activity Score” value was “Inactive”, the “LDH Increase - Index Value” is on record as 2 and the “LDH Increase - Number of Reports” value is given as “>= 4”. In the data set on Hepatotoxicity [3], the “GGT Increase - Activity Score” value was “Marginally Active”, the “GGT Increase - Index Value” is on record as 3.8 and the “GGT Increase - Number of Reports” value is listed as “>= 4”. In addition, in the data set with Hepatotoxicity [4], the “Alkaline Phosphatase Increase - Activity Score” value is “Active”, the “Alkaline Phosphatase Increase - Index Value” is listed as 9.2 and the “Alkaline Phosphatase Increase - Number of Reports” value is listed as “>= 4”. In the data set with Hepatotoxicity [5], the “SGOT Increase - Activity Score” value is listed as “Active”, the “SGOT Increase - Index Value” came out at 11.4 and the “SGOT Increase - Number of Reports” value is given as “>= 4”. Also, in the data set with Hepatotoxicity [6] (Liver), the “Composite Activity - Active” value came out at 3, the “Composite Activity - Marginal” value came to 1 and the “Composite Activity - Score” value was “Active”.
`O=c1[nH]cnc2c1ncn2[C@H]1CC[C@@H](CO)O1` [DIDANOSINE]: in the data set on Hepatotoxicity [1], the “SGPT Increase - Activity Score” value was “Active”, the “SGPT Increase - Index Value” is recorded as 12.9 and the “SGPT Increase - Number of Reports” value is reported as “>= 4”. In the data set with Hepatotoxicity [2], the “LDH Increase - Activity Score” value was “Marginally Active”, the “LDH Increase - Index Value” was 3 and the “LDH Increase - Number of Reports” value is “>= 4”. For the same compound, in the data set on Hepatotoxicity [3], the “GGT Increase - Activity Score” value is listed as “Inactive”, the “GGT Increase - Index Value” came to 1.5 and the “GGT Increase - Number of Reports” value is < 4. For the same compound, in the data set with Hepatotoxicity [4], the “Alkaline Phosphatase Increase - Activity Score” value is reported as “Active”, the “Alkaline Phosphatase Increase - Index Value” was found to be 14.5 and the “Alkaline Phosphatase Increase - Number of Reports” value was “>= 4”. In addition, in the data set with Hepatotoxicity [5], the “SGOT Increase - Activity Score” value is reported as “Active”, the “SGOT Increase - Index Value” is listed as 13.7 and the “SGOT Increase - Number of Reports” value is on record as “>= 4”. Moreover, in the data set on Hepatotoxicity [6], the “Composite Activity - Active” value was found to be 3, the “Composite Activity - Marginal” value stood at 1 and the “Composite Activity - Score” value is given as “Active”.
As for `O=C(O)c1cc(-c2ccc(F)cc2F)ccc1O` [DIFLUNISAL], in the data set on Hepatotoxicity [1], the “SGPT Increase - Activity Score” value is on record as “Inactive”, the “SGPT Increase - Index Value” is 0.5 and the “SGPT Increase - Number of Reports” value is reported as < 4. In addition, in the data set with Hepatotoxicity [2], the “LDH Increase - Activity Score” value is “Inactive”, the “LDH Increase - Index Value” was found to be 0 and the “LDH Increase - Number of Reports” value is given as < 4. Moreover, in the data set on Hepatotoxicity [3], the “GGT Increase - Activity Score” value was “Inactive”, the “GGT Increase - Index Value” is 0 and the “GGT Increase - Number of Reports” value was < 4. Besides, in the data set on Hepatotoxicity [4], the “Alkaline Phosphatase Increase - Activity Score” value is listed as “Inactive”, the “Alkaline Phosphatase Increase - Index Value” worked out at 0 and the “Alkaline Phosphatase Increase - Number of Reports” value is recorded as < 4. Further, in the data set on Hepatotoxicity [5], the “SGOT Increase - Activity Score” value is reported as “Inactive”, the “SGOT Increase - Index Value” came to 0.3 and the “SGOT Increase - Number of Reports” value is < 4. In addition, in the data set with Hepatotoxicity [6] (Liver), the “Composite Activity - Active” value amounted to 0, the “Composite Activity - Marginal” value is 0 and the “Composite Activity - Score” value was “Inactive”.
Consider `COc1ccc([C@@H]2Sc3ccccc3N(CCN(C)C)C(=O)[C@@H]2OC(C)=O)cc1` [DILTIAZEM], for which, in the data set on Hepatotoxicity [1], the “SGPT Increase - Activity Score” value is on record as “Inactive”, the “SGPT Increase - Index Value” stood at 0.1 and the “SGPT Increase - Number of Reports” value is < 4. Further, in the data set on Hepatotoxicity [2], the “LDH Increase - Activity Score” value is given as “Inactive”, the “LDH Increase - Index Value” turned out to be 0.1 and the “LDH Increase - Number of Reports” value is < 4. Further, in the data set with Hepatotoxicity [3], the “GGT Increase - Activity Score” value is on record as “Inactive”, the “GGT Increase - Index Value” is on record as 0 and the “GGT Increase - Number of Reports” value is listed as < 4. In addition, in the data set with Hepatotoxicity [4], the “Alkaline Phosphatase Increase - Activity Score” value was “Inactive”, the “Alkaline Phosphatase Increase - Index Value” was found to be 0.1 and the “Alkaline Phosphatase Increase - Number of Reports” value is < 4. Moreover, in the data set with Hepatotoxicity [5], the “SGOT Increase - Activity Score” value is “Inactive”, the “SGOT Increase - Index Value” amounted to 0.3 and the “SGOT Increase - Number of Reports” value is recorded as “>= 4”. For the same compound, in the data set with Hepatotoxicity [6], the “Composite Activity - Active” value was found to be 0, the “Composite Activity - Marginal” value is 0 and the “Composite Activity - Score” value was “Inactive”.
With `CNCC(O)c1ccc(OC(=O)C(C)(C)C)c(OC(=O)C(C)(C)C)c1` (configuration not stated) [DIPIVEFRIN], in the data set on Hepatotoxicity [1], the “SGPT Increase - Activity Score” value is “Inactive”, the “SGPT Increase - Index Value” came to 0 and the “SGPT Increase - Number of Reports” value is reported as < 4. In the data set on Hepatotoxicity [2], the “LDH Increase - Activity Score” value is “Inactive”, the “LDH Increase - Index Value” is 0 and the “LDH Increase - Number of Reports” value is recorded as < 4. In addition, in the data set on Hepatotoxicity [3], the “GGT Increase - Activity Score” value was “Inactive”, the “GGT Increase - Index Value” was 0 and the “GGT Increase - Number of Reports” value is given as < 4. Further, in the data set with Hepatotoxicity [4], the “Alkaline Phosphatase Increase - Activity Score” value is recorded as “Inactive”, the “Alkaline Phosphatase Increase - Index Value” was found to be 0 and the “Alkaline Phosphatase Increase - Number of Reports” value is < 4. For the same compound, in the data set on Hepatotoxicity [5], the “SGOT Increase - Activity Score” value is listed as “Inactive”, the “SGOT Increase - Index Value” turned out to be 0 and the “SGOT Increase - Number of Reports” value was < 4. Moreover, in the data set with Hepatotoxicity [6], the “Composite Activity - Active” value is given as 0, the “Composite Activity - Marginal” value was 0 and the “Composite Activity - Score” value is “Inactive”.
In the case of `CC[C@H]1OC(=O)[C@H](C)[C@@H](O[C@H]2C[C@@](C)(OC)[C@@H](O)[C@H](C)O2)[C@H](C)[C@@H](O[C@@H]2O[C@H](C)C[C@H](N(C)C)[C@H]2O)[C@](C)(O)C[C@@H](C)[C@@H]2N[C@@H](COCCOC)O[C@H]([C@H]2C)[C@]1(C)O` [DIRITHROMYCIN], in the data set with Hepatotoxicity [1], the “SGPT Increase - Activity Score” value is reported as “Inactive”, the “SGPT Increase - Index Value” is listed as 5.4 and the “SGPT Increase - Number of Reports” value is < 4. In the data set with Hepatotoxicity [2], the “LDH Increase - Activity Score” value was “Inactive”, the “LDH Increase - Index Value” is on record as 0 and the “LDH Increase - Number of Reports” value is listed as < 4. For the same compound, in the data set with Hepatotoxicity [3], the “GGT Increase - Activity Score” value was “Inactive”, the “GGT Increase - Index Value” was determined as 2.7 and the “GGT Increase - Number of Reports” value is reported as < 4. For the same compound, in the data set with Hepatotoxicity [4], the “Alkaline Phosphatase Increase - Activity Score” value is “Inactive”, the “Alkaline Phosphatase Increase - Index Value” was found to be 0 and the “Alkaline Phosphatase Increase - Number of Reports” value is listed as < 4. Also, in the data set on Hepatotoxicity [5], the “SGOT Increase - Activity Score” value is “Inactive”, the “SGOT Increase - Index Value” amounted to 5.4 and the “SGOT Increase - Number of Reports” value was < 4. For the same compound, in the data set on Hepatotoxicity [6], the “Composite Activity - Active” value was 0, the “Composite Activity - Marginal” value stood at 0 and the “Composite Activity - Score” value was “Inactive”.
